{"source": "patent US20100183524A1", "about": "“ANTIOXIDANT COMPOSITIONS FOR SOFT ORAL TISSUE AND METHODS OF FORMULATION AND USE THEREOF” (Perio Sciences, LLC, priority 2008, published 2010)", "key": {"Rac-GTP in HGF cells": {"tested_on": "Rac-GTP in HGF cells", "assay": "Rac-GTP immunofluorescence in scratch wound assay, nicotine-exposed HGF", "assay_type": "cell-based, human", "procedure": "(§1) Both cell types tested (HGF and HPDL) were plated at 5×10^4 cells/well in a Lab-Tek II chamber glass slide with cover (Nalge Nunc International, Rochester, N.Y.). Approximately 400 μl of cell medium suspension was added to each well. The cells were grown overnight until confluent. Cells were pretreated with nicotine (10 mM, 8 mM and 6 mM) for two hours and then treated with antioxidants (resveratrol, trans=ferulic acid, tetrahydrocurcuminoids CG™, or phloretin) in double or triple combinations at 0.4% w/v (10^−5M). Two hours later, a scratch wound assay was performed using a sterile 10 μl pipet tip.\n(§2) The cells were fixed with 4% paraformaldehyde for 30 minutes and then washed with sterile phosphate buffered saline (PBS) three times. […] The secondary antibody (1:500 Alexa Fluor® 488 goat anti-mouse IgG (H+L) (Molecular Probes, Eugene, Oreg.) was incubated for two hours at room temperature. The stained cells were washed with PBS three times. The Lab-Tek II wells were removed and the cells were cover-slipped with slowfade mounting medium. Analysis of the levels of Rac-GTP at the leading edge of the wound were determined using confocal microscopy. All treatments were recorded with the same settings on a Leica SP2 microscope. All images were taken from projected z stacks of the immunolabeled cells. Intensity of Rac-GTP immunofluorescence was determined using Nikon Elements software. […]"}, "[1]": {"tested_on": "human gingival fibroblasts (HGF)", "experimental": "Human gingival tissues from healthy nonsmokers were collected with institutional review board approval and tissues were cultured in high glucose Dulbecco's modified eagles medium (DMEM), 10% FBS, and 1% antimycotic/antiobiotic. Tissues were incubated at 37° C. in a humidified gas mixture (5% CO2 and 95% air) and medium was changed every 24 hours. Human gingival fibroblasts (HGF) grew from the tissue after a week. Cells were passaged using 0.25% trypsin solutions and plated in new tissue culture flasks when confluent. Passages 3-12 were used in all of the experiments.\nIn this experiment, 5×10^3 cells in 100 μL of culture medium were seeded into each well of a 96-well plate. […]\n(§3) Cell viability and survival were assessed by MTS colorimetric assay (3-[4,5-dimethylthiazol-2-yl]-5-[3-carboxymethoxyphenyl]-2-[4-sulfophenyl]-2H-tetrazolium) (Promega Corp., Madison, Wis.). This quantitative assay detects living but not dead cells. […] The absorbance at 490 nm was measured using a SpectraMax microplate spectrophotometer (Molecular Devices, Sunnyvale, Calif.). […]\nPercent viable cells were expressed as; A/B, where A is absorbance at 490 nm with antioxidant compounds (RFT, PFR, PFT) and H2O2 or Ethanol pre-treatments; B absorbance at 490 nm with 0.1% FBS (control). […]"}, "[2]": {"tested_on": "Human periodontal ligament fibroblasts (HPDL)", "experimental": "Culture conditions as described in HGF were similarly employed in the HPDL cells. In this experiment, 5×10^3 cells in 100 μL of culture medium were seeded into each well of a 96-well plate. […] Bioactive antioxidant mixtures tested included: resveratrol, ferulic acid and tetrahydrocurcuminoids (RFT), phloretin, ferulic acid and resveratrol (PFR), phloretin, ferulic acid and tetrahydrocurcuminoids (PFT).\nCells were washed with PBS and treated with antioxidant mixtures (RFT, PFR, PFT) in 0.1% FBS medium (DMEM and 1% antimycotic/antiobiotic) for 24 hours.\nDifferent ethanol concentrations (15%, 10% and 5%) were used for dose response experiments for 30 or 60 minutes.\nAfter pretreatment with ethanol or H2O2, the cells were rinsed and treated with 10^−5M (0.4% wt/v) antioxidant mixture (RFT, PFR, PFT) for 24 hrs.\nas §3\na. Percent viable cells were expressed as; A/B, where A is absorbance at 490 nm with antioxidant compounds (RFT, PFR, PFT) and H2O2 or Ethanol pre-treatments; B absorbance at 490 nm with 0.1% FBS (control). […]"}, "[3]": {"tested_on": "human gingival fibroblast (HGF) cells", "conditions": "6, 8 or 10 mM nicotine, two hours", "experimental": "Cells were then treated with a solution containing either the three antioxidants described above, or a 1:1 ratio of only two antioxidants, or only a single antioxidant. Cell migration was recorded using BioStation Live Cell Imaging (Nikon Instruments, Melvile, N.Y.) every hour for ten hours, and data presented here is for 1 hour, 5 hours, or 10 hours."}, "Rac-GTP in HPDL cells": {"tested_on": "Rac-GTP in HPDL cells", "assay": "Rac-GTP immunofluorescence in scratch wound assay, nicotine-exposed HPDL", "assay_type": "cell-based, human", "conditions": "nicotine 6 mM, 8 mM, 10 mM", "procedure": "as §1, §2"}}}
{"compound": "COc1cc(/C=C/C(=O)O)ccc1O", "note": "[trans-ferulic acid]", "values": [{"measurement": "increase of Rac-GTP expression over nicotine treated cells (6 mM Nic), mean pixel intensity", "setting": "Rac-GTP in HGF cells; 6 mM nicotine two hours, then antioxidants 10^−5 M, leading edge of the wound", "result": 35, "unit": "%"}]}
{"compound": "ethyl alcohol [Ethanol]", "values": [{"measurement": "cell viability (MTS) after ethanol", "setting": "[1]", "result": "dose dependent effect on cell viability"}, {"measurement": "cell viability (MTS) after ethanol", "setting": "[2]", "result": "dose dependent effect on cell viability"}]}
{"compound": "CN1CCCC1c1cccnc1", "note": "(centres unmarked) [nicotine]", "values": [{"measurement": "effect of nicotine on cell migration", "setting": "[3]", "result": "deleterious effect on cell migration that increased with exposure to more concentrated nicotine"}, {"measurement": "effect of nicotine on Rac-GTP expression", "setting": "Rac-GTP in HPDL cells", "result": "dose dependent decrease"}, {"measurement": "effect of nicotine on Rac-GTP expression", "setting": "Rac-GTP in HGF cells; nicotine 6 mM, 8 mM, 10 mM", "result": "dose dependent decrease"}]}
{"compound": "OO", "note": "[Formulation H2O2, hydrogen peroxide]", "values": [{"measurement": "viable cells (MTS) after H2O2", "setting": "[1]", "result": "dose-dependent decrease of viable cells"}, {"measurement": "viable cells (MTS) after H2O2", "setting": "[2]", "result": "dose-dependent decrease of viable cells"}]}
